Experimental data published in BindingDB's records for doi:10.1016/j.bioorg.2016.10.003 (Indian Institute of Technology (Banaras Hindu University), 2016).

molecular target: T1, Prostaglandin G/H synthase 1 (Ovis aries, UniProt P05979); experiment: In vitro COX Inhibition Assay
T1 sequence (P05979 whole entry): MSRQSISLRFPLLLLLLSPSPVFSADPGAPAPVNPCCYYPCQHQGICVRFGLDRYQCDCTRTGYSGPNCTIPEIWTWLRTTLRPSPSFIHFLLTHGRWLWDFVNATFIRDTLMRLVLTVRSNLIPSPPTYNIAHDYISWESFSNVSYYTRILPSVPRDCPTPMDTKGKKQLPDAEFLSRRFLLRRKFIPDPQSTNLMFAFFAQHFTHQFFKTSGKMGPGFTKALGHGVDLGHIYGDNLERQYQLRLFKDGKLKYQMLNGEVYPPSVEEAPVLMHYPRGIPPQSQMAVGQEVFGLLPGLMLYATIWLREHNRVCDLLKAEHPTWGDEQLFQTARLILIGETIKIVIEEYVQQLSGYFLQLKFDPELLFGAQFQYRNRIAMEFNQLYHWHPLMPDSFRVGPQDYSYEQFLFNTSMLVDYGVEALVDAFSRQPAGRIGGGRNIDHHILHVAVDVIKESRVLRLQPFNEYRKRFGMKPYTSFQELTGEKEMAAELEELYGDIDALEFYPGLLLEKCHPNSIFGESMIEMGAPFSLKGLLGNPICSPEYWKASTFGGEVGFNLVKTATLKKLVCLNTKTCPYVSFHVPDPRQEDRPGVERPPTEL
Description: The peroxidase activity is assayed colorimetrically by monitoring the appearance of oxidised N,N,N',N'-tetramethyl-p-phenylenediamine (TMPD) at 590 nm.

`O=c1nc(-c2ccccc2)c(-c2ccccc2)nn1Cc1nnc(Nc2ccc(Cl)cc2)o1` [2-((5-(4-Chlorophenylamino)-1,3,4-oxadiazol-2-yl)methyl)-5,6-diphenyl-1,2,4-triazin-3(2H)-one (3d)] and `COc1ccc(Nc2nnc(Cn3nc(-c4ccccc4)c(-c4ccccc4)nc3=O)o2)cc1` [2-((5-(4-Methoxyphenylamino)-1,3,4-oxadiazol-2-yl)methyl)-5,6-diphenyl-1,2,4-triazin-3(2H)-one (3c)] are within 1.5-fold of each other in IC50: 64.5 µM for the first, 60.5 µM for the second.

`O=c1nc(-c2ccccc2)c(-c2ccccc2)nn1Cc1nnc(Nc2ccc(Cl)cc2)s1` [2-((5-(4-Chlorophenylamino)-1,3,4-thiadiazol-2-yl)methyl)-5,6-diphenyl-1,2,4-triazin-3(2H)-one (4d)] and `COc1ccc(Nc2nnc(Cn3nc(-c4ccccc4)c(-c4ccccc4)nc3=O)s2)cc1` [2-((5-(4-Methoxyphenylamino)-1,3,4-thiadiazol-2-yl)methyl)-5,6-diphenyl-1,2,4-triazin-3(2H)-one (4c)] are within 1.5-fold of each other in IC50: 62.2 µM for the first, 60.1 µM for the second.

`O=c1nc(-c2ccccc2)c(-c2ccccc2)nn1Cc1nnc(Nc2ccc([N+](=O)[O-])cc2)o1` [2-((5-(4-Nitrophenylamino)-1,3,4-oxadiazol-2-yl)methyl)-5,6-diphenyl-1,2,4-triazin-3(2H)-one (3e)] and `O=c1nc(-c2ccccc2)c(-c2ccccc2)nn1Cc1nnc(Nc2ccc([N+](=O)[O-])cc2)s1` [2-((5-(4-Nitrophenylamino)-1,3,4-thiadiazol-2-yl)methyl)-5,6-diphenyl-1,2,4-triazin-3(2H)-one (4e)] are within 1.5-fold of each other in IC50: 62.4 µM for the first, 63.2 µM for the second.
